In US6355658B1, “Coumarin derivatives, methods of preparation and application as medicines” (Centre National de la Recherche Scientifique, priority 1997, dated 2002):
Where two headings read alike, the source gives them in different places.

What was measured:
[1] = biological target: T1, human thrombin (Homo sapiens, UniProt P00734); assay: Inactivation kinetics of human thrombin (chromogenic substrate H-D-Phe-Pip-Arg-pNA); assay type: biochemical; details: 25° C., pH 7.5, N.I. = non-inactivator; for kinact/KI: read-out: Ki/KI or kobs/[I], Thrombin
T1 construct: human thrombin
Procedure: (§1) The inactivating or inhibitory properties of the coumarin derivatives were tested with respect to a certain number of enzymes: human leukocyte elastase, bovine α-chymotrypsin, human thrombin and bovine trypsin. The kinetic measurements were taken at 25° C. in the following buffers: 0.1 M Hepes, 0.5 M NaCl, 0.01% Tween 80, pH 8.0 (human leukocyte elastase); 0.025 M NaH2PO4, 0.05 M KCl, pH 7.5 (α-chymotrypsin); 0.01 M Tris, 0.01 M Hepes, 0.1 M NaCl, 0.1% PEG-6000, pH 7.5 (human thrombin); 0.1 M Tris, 0.01 M CaCl2, pH 7.5 (bovine trypsin). The chromogenic substrates used to determine the activity of the enzymes are: MeOSuc-Ala2-Pro-Val-pNA (human leukocyte elastase); Suc-Ala2-Pro-Phe-pNA (α-chymotrypsin); H-D-Phe-Pip-Arg-pNA (human thrombin); N-benzoyl-Arg-pNA (bovine trypsin) (pNA: para-nitroaniline).
(§2) The interaction of a suicide substrate with a serine protease corresponds to the minimum reaction scheme described in equation 1 in which E represents the enzyme, I represents the inhibitor, E-I represents the acyl-enzyme and E-I′ represents the inactivated enzyme [Silverman R. B., 1988, “Mechanism-based enzyme inactivation: chemistry and enzymology”, volume 1 CRC Press, Boca Raton, Fla.]: [drawing 76]
(§3) When k4 is small compared to k3, equation 1 can be simplified (equation 2, [Daniels et al., 1983, J. Biol. Chem., 258: 15046-15053]): [drawing 77]
(§4) Considering the first instants of the reaction, the system reduces to a simplified equation of the form of equation 2.
(§5) The kinetic constants characterizing the inactivation of the enzymes with the coumarin derivatives were determined using either the conventional sampling method (or batchwise method) or a method placing the inhibitor and the substrate in competition (or continuous method); these methods are described by Pochet et al. [Pochet et al., 1996, J. Med. Chem., 39: 2579-2585].
(§6) The inactivation of serine proteaaes with the coumarin derivatives is thus characterized by the following constants (see Eq. 2):
(§7) KI: apparent dissociation constant of an enzyme-inhibitor complex located upstream of ki
(§8) ki: first-order rate constant for inactivation at infinite inhibitor concentration
(§9) ki/KI: index of the overall inactivating efficacy of the inhibitor.

[2] = biological target: T2, bovine α-chymotrypsin (Bos taurus, UniProt P00766); assay: Inactivation kinetics of bovine α-chymotrypsin (chromogenic substrate Suc-Ala2-Pro-Phe-pNA); assay type: biochemical; details: 25° C., pH 7.5, N.I. = non-inactivator; for kinact/KI: read-out: Ki/KI or kobs/[I], α-CT
T2 construct: bovine α-chymotrypsin
Procedure: as §1, §2, §3, §4, §5, §6, §7, §8, §9

[3] = biological target: T3, human leukocyte elastase (Homo sapiens, UniProt P08246); assay: Inactivation kinetics of human leukocyte elastase (chromogenic substrate MeOSuc-Ala2-Pro-Val-pNA); assay type: biochemical; details: 25° C., pH 8.0
T3 sequence (P08246 30-247 limits assumed): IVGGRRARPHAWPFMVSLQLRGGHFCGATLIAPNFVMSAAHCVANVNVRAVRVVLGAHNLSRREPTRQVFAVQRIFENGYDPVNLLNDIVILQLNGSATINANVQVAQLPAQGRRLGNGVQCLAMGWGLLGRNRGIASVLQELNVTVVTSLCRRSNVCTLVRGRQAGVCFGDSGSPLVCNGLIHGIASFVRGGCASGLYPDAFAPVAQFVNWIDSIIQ
Procedure: as §1, §2, §3, §4, §5, §6, §7, §8, §9

[4] = biological target: T4, bovine trypsin (Bos taurus, UniProt P00760); assay: Inactivation kinetics of bovine trypsin (chromogenic substrate N-benzoyl-Arg-pNA); assay type: biochemical; details: 25° C., pH 7.5, N.I. = non-inactivator
T4 sequence (P00760 24-246): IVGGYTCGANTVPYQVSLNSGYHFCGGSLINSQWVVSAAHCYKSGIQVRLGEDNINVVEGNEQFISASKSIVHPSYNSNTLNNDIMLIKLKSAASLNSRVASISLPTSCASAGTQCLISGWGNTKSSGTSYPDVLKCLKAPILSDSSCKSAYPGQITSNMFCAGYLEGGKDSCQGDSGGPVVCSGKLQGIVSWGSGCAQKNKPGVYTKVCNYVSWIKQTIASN
Procedure: as §1, §2, §3, §4, §5, §6, §7, §8, §9

[5] = TABLE 1, 2-pyridyl esters, inactivation phase
[6] = TABLE 1, 2-pyridyl esters, inactivation phase of transient inactivation, read-out: Ki/KI or kobs/[I], LHE
[7] = TABLE 5, phenyl esters, inactivation phase
[8] = TABLE 5, phenyl esters, without 6-chloromethyl: inactivation phase of transient inactivation
[9] = TABLE 5, phenyl esters, inactivation phase, N.I. = non-inactivator, read-out: Ki/KI or kobs/[I], HLE
[10] = TABLE 3, no chloromethyl in position 6
[11] = TABLE 3, no chloromethyl in position 6, inactivation phase of transient inactivation, read-out: Ki/KI or kobs/[I], LHE

Cc1ccnc(OC(=O)c2cc3cc(CCl)ccc3oc2=O)c1 [Ic′″11, 4-methyl-2-pyridyl 6-chloromethyl-2-oxo-2H-1-benzopyran-3-carboxylate]
kinact/KI [1, 5]: 3900 M⁻¹ s⁻¹ | Ki/KI or kobs/[I], Thrombin ([1]; TABLE 1, inactivation phase): 3900 M⁻¹ s⁻¹ | melting point: 152 to 154 °C | kinact/KI ([2]; TABLE 1, 2-pyridyl esters): 5950 M⁻¹ s⁻¹ | kinact/KI [3, 6]: 300 M⁻¹ s⁻¹ | Ki/KI or kobs/[I], LHE ([3]; TABLE 1, inactivation phase): 300 M⁻¹ s⁻¹ | Ki/KI or kobs/[I], Trypsin ([4]; TABLE 1, 2-pyridyl esters): N.I.^a — — N.I. N.I. | Ki/KI or kobs/[I], Trypsin ([4]; TABLE 1): N.I.^a — — N.I. N.I.

O=C(Oc1cc(Cl)cc(Cl)c1)c1cc2cc(CCl)ccc2oc1=O [Ic″6, 3,5-dichlorophenyl 6-chloromethyl-2-oxo-2H-1-benzopyran-3-carboxylate]
Ki/KI or kobs/[I], Thrombin [1, 7]: N.I. | kinact/KI [2, 8]: 110000 M⁻¹ s⁻¹ | kinact/KI [3, 9]: 4000 M⁻¹ s⁻¹

O=C(Oc1cccc(Cl)n1)c1cc2cc(CCl)ccc2oc1=O [Ic′″12, 6-chloro-2-pyridyl 6-chloromethyl-2-oxo-2H-1-benzopyran-3-carboxylate]
kinact/KI [1, 5]: 7200 M⁻¹ s⁻¹ | Ki/KI or kobs/[I], Thrombin ([1]; TABLE 1, inactivation phase): 7200 M⁻¹ s⁻¹ | melting point: 172 to 173 °C | kinact/KI ([2]; TABLE 1, 2-pyridyl esters): 107000 M⁻¹ s⁻¹ | kinact/KI [3, 6]: 26000 M⁻¹ s⁻¹ | Ki/KI or kobs/[I], LHE ([3]; TABLE 1, inactivation phase): 26000 M⁻¹ s⁻¹

O=C(Oc1cccc(C(F)(F)F)c1)c1cc2cc(CCl)ccc2oc1=O [Ic″2, 3-trifluoromethylphenyl 6-chloromethyl-2-oxo-2H-1-benzopyran-3-carboxylate]
melting point: 162 to 163 °C | kinact/KI [2, 8]: < 500 M⁻¹ s⁻¹ | kinact/KI [3, 9]: 330 M⁻¹ s⁻¹

Cl.NCc1ccc2oc(=O)c(C(=O)Oc3cncc(Cl)c3)cc2c1 [If3, 5-chloro-3-pyridyl 6-aminomethyl-2-oxo-2H-1-benzopyran-3-carboxylate hydrochloride]
Ki/KI or kobs/[I], Thrombin ([1]; TABLE 3): N.I. N.I. N.I. N.I. N.I. N.I. N.I. N.I. — | Ki/KI or kobs/[I], Thrombin ([1]; second table headed TABLE 3): N.I. N.I. N.I. N.I. N.I. N.I. N.I. N.I. — | melting point: 230 °C (dec.) | Ki/KI or kobs/[I], α-CT [2, 10]: N.I.^a N.I. N.I. N.I. N.I. N.I. N.I. N.I. | Ki/KI or kobs/[I], α-CT ([2]; second table headed TABLE 3): N.I.^a N.I. N.I. N.I. N.I. N.I. N.I. N.I. | kinact/KI [3, 11]: 9100 M⁻¹ s⁻¹ | Ki/KI or kobs/[I], LHE ([3]; TABLE 3, inactivation phase): 9100 M⁻¹ s⁻¹

COc1cc(Cl)cc(OC(=O)c2cc3cc(CCl)ccc3oc2=O)c1 [Ic″7, 3-chloro-5-methoxyphenyl 6-chloromethyl-2-oxo-2H-1-benzopyran-3-carboxylate]
kinact/KI [2, 8]: 1200 M⁻¹ s⁻¹ | kinact/KI [3, 9]: 350 M⁻¹ s⁻¹

Cc1ccc2oc(=O)c(C(=O)Oc3cccc(Cl)c3)cc2c1 [Ib1, 3-chlorophenyl 6-methyl-2-oxo-2H-1-benzopyran-3-carboxylate]
melting point: 175 to 176 °C | kinact/KI [2, 8]: 9400 M⁻¹ s⁻¹ | kinact/KI [3, 9]: 1100 M⁻¹ s⁻¹

CC(C)(C)C(=O)OCc1ccc2oc(=O)c(C(=O)Oc3cncc(Cl)c3)cc2c1 [Id8, 5-chloro-3-pyridyl 6-trimethylacetoxymethyl-2-oxo-2H-1-benzopyran-3-carboxylate]
Ki/KI or kobs/[I], Thrombin ([1]; TABLE 3): N.I. N.I. N.I. N.I. N.I. N.I. N.I. N.I. — | Ki/KI or kobs/[I], α-CT [2, 10]: N.I.^a N.I. N.I. N.I. N.I. N.I. N.I. N.I. | kinact/KI [3, 11]: 95500 M⁻¹ s⁻¹ | Ki/KI or kobs/[I], Trypsin ([4]; TABLE 3): N.I. N.I. N.I. N.I. N.I. N.I. N.I. — —

CC(=O)OCc1ccc2oc(=O)c(C(=O)Oc3cccc(Cl)c3)cc2c1 [Id2, 3-chlorophenyl 6-acetoxymethyl-2-oxo-2H-1-benzopyran-3-carboxylate]
kinact/KI [1, 7]: 580 M⁻¹ s⁻¹ | kinact/KI [2, 8]: 20000 M⁻¹ s⁻¹ | kinact/KI [3, 9]: 1440 M⁻¹ s⁻¹

O=C(Sc1cccc(Cl)c1)c1cc2cc(CCl)ccc2oc1=O [III2, S-(3-chlorophenyl) 6-chloromethyl-2-oxo-2H-1-benzopyran-3-carbothioate]
Ki/KI or kobs/[I], Thrombin [1, 7]: — N.I. | melting point: 194 to 195 °C | kinact/KI [2, 8]: 730000 M⁻¹ s⁻¹ | kinact/KI [3, 9]: < 200 M⁻¹ s⁻¹

O=C(Oc1cccc(Cl)c1Cl)c1cc2cc(CCl)ccc2oc1=O [Ic″3, 2,3-dichlorophenyl 6-chloromethyl-2-oxo-2H-1-benzopyran-3-carboxylate]
Ki/KI or kobs/[I], Thrombin [1, 7]: — — — — N.I. N.I. | kinact/KI [2, 8]: 1200 M⁻¹ s⁻¹ | kinact/KI [3, 9]: < 200 M⁻¹ s⁻¹

O=C(Sc1ccccc1)c1cc2cc(CCl)ccc2oc1=O [III1, S-phenyl 6-chloromethyl-2-oxo-2H-1-benzopyran-3-carbothioate]
kinact/KI [2, 8]: 39000 M⁻¹ s⁻¹ | Ki/KI or kobs/[I], HLE ([3]; TABLE 5, phenyl esters, inactivation phase, N.I. = non-inactivator): N.I.

O=C(Oc1ccc(Cl)cn1)c1cc2cc(CCl)ccc2oc1=O [Ic′″13, 5-chloro-2-pyridyl 6-chloromethyl-2-oxo-2H-1-benzopyran-3-carboxylate]
Ki/KI or kobs/[I], Thrombin [1, 5]: N.I. | Ki/KI or kobs/[I], Thrombin ([1]; TABLE 1, inactivation phase): N.I. | melting point: 171 to 172 °C | kinact/KI ([2]; TABLE 1, 2-pyridyl esters): ~2500 M⁻¹ s⁻¹ | kinact/KI [3, 6]: 110 M⁻¹ s⁻¹ | Ki/KI or kobs/[I], LHE ([3]; TABLE 1, inactivation phase): 110 M⁻¹ s⁻¹

O=C(Oc1cc(Cl)ccc1Cl)c1cc2ccccc2oc1=O [Ia4, 2,5-dichlorophenyl 2-oxo-2H-1-benzopyran-3-carboxylate]
Ki/KI or kobs/[I], Thrombin [1, 7]: N.I. | melting point: 189 to 192 °C | kinact/KI [3, 9]: 5800 M⁻¹ s⁻¹

O=C(Oc1cncc(Cl)c1)c1cc2cc(Br)ccc2oc1=O [Ig1, 5-chloro-3-pyridyl 6-bromo-2-oxo-2H-1-benzopyran-3-carboxylate]
Ki/KI or kobs/[I], α-CT [2, 10]: # N.I. | kinact/KI [3, 11]: 58000 M⁻¹ s⁻¹

O=C(Oc1c(Cl)cccc1Cl)c1cc2cc(CCl)ccc2oc1=O [Ic″5, 2,6-dichlorophenyl 6-chloromethyl-2-oxo-2H-1-benzopyran-3-carboxylate]
Ki/KI or kobs/[I], Thrombin [1, 7]: — — — — N.I. N.I. | Ki/KI or kobs/[I], α-CT [2, 8]: N.I. | kinact/KI [3, 9]: < 200 M⁻¹ s⁻¹

O=C(Oc1cncc(Cl)c1)c1cc2ccccc2oc1=O [Ia3, 5-chloro-3-pyridyl 2-oxo-2H-1-benzopyran-3-carboxylate]
Ki/KI or kobs/[I], Thrombin ([1]; TABLE 3): N.I. N.I. N.I. N.I. N.I. N.I. N.I. N.I. — | Ki/KI or kobs/[I], α-CT [2, 10]: N.I.^a N.I. N.I. N.I. N.I. N.I. N.I. N.I. | kinact/KI [3, 11]: 32800 M⁻¹ s⁻¹ | Ki/KI or kobs/[I], Trypsin ([4]; TABLE 3): N.I. N.I. N.I. N.I. N.I. N.I. N.I. — —

O=C(Oc1ccccc1[N+](=O)[O-])c1cc2cc(CCl)ccc2oc1=O [Ic″1, 2-nitrophenyl 6-chloromethyl-2-oxo-2H-1-benzopyran-3-carboxylate]
melting point: 163 to 164 °C | kinact/KI [2, 8]: 9300 M⁻¹ s⁻¹ | kinact/KI [3, 9]: 1250 M⁻¹ s⁻¹
